These compounds were tested on HCV 1b-Con-1 replicon (assay: HCV 1b-Con-1 replicon assay (luciferase reporter gene, HuH-7 cells)). Conditions: Hepatitis C virus, Huh-7, luciferase reporter gene activity in the replicon, in the presence of 5% FBS.
Type: cell-based, Hepatitis C virus (HCV) genotype 1b-Con1
For `COC(=O)N[C@H](C(=O)N1CCCC[C@H]1C(=O)Nc1ccc(CN(Cc2ccc(NC(=O)[C@@H]3CCCCN3C(=O)[C@@H](NC(=O)OC)C(C)(C)C)cc2)c2ccc(F)cc2)cc1)C(C)(C)C` [Example 101, methyl [(1S)-1-{[(2S)-2-{[4-({(4-fluorophenyl)[4-({[(2S)-1-{(2S)-2-[(methoxycarbonyl)amino]-3,3-dimethylbutanoyl}piperidin-2-yl]carbonyl}amino)benzyl]amino}methyl)phenyl]carbamoyl}piperidin-1-yl]carbonyl}-2,2-dimethylpropyl]carbamate], the EC50 was less than 1 nM.
`COC(=O)N[C@H](C(=O)N1C[C@@H]2C[C@@H]2[C@H]1C(=O)Nc1ccc(CN(Cc2ccc(NC(=O)[C@@H]3[C@H]4C[C@H]4CN3C(=O)[C@@H](NC(=O)OC)C(C)(C)C)cc2)c2ccc(F)cc2)cc1)C(C)(C)C` [Example 109, methyl [(1S)-1-{[(1S,2S,5R)-2-{[4-({(4-fluorophenyl)[4-({[(1S,2S,5R)-3-{(2S)-2-[(methoxycarbonyl)amino]-3,3-dimethylbutanoyl}-3-azabicyclo[3.1.0]hex-2-yl]carbonyl}amino)benzyl]amino}methyl)phenyl]carbamoyl}-3-azabicyclo[3.1.0]hex-3-yl]carbonyl}-2,2-dimethylpropyl]carbamate] gave an EC50 of 10 to 100 nM.
`COC(=O)N[C@H](C(=O)N1CCC[C@H]1C(=O)Nc1ccc(CN(Cc2ccc3[nH]c([C@@H]4CCCN4C(=O)[C@@H](NC(=O)OC)C(C)(C)O)nc3c2)c2ccc(F)cc2)cc1)C(C)(C)O` [Example 99, 3-hydroxy-N-(methoxycarbonyl)-L-valyl-N-[4-({(4-fluorophenyl)[(2-{(2S)-1-[3-hydroxy-N-(methoxycarbonyl)-L-valyl]pyrrolidin-2-yl}-1H-benzimidazol-5-yl)methyl]amino}methyl)phenyl]-L-prolinamide] gave an EC50 of less than 1 nM.
Work on `O=C(Nc1ccc(CN(Cc2ccc(NC(=O)[C@@H]3CCCN3C(=O)C(c3ccccc3)N3CC[C@H](F)C3)cc2)c2ccc(F)cc2)cc1)[C@@H]1CCCN1C(=O)C(c1ccccc1)N1CC[C@H](F)C1` (stereo partly drawn) [Example 119, (2S,2′S)-N,N′-{[(4-fluorophenyl)imino]bis(methanediylbenzene-4,1-diyl)}bis(1-{[(3S)-3-fluoropyrrolidin-1-yl](phenyl)acetyl}pyrrolidine-2-carboxamide)] yielded an EC50 of less than 1 nM.
`CCN(CC)[C@@H](C(=O)N1CCC[C@H]1C(=O)Nc1ccc(CN(Cc2ccc(NC(=O)[C@@H]3CCCN3C(=O)[C@@H](NC(=O)OC)[C@H]3CCOC3)cc2)c2ccc(F)cc2)cc1)c1ccccc1` [Example 81, methyl {(1S)-2-{(2S)-2-[(4-{[{4-[({(2S)-1-[(2R)-2-(diethylamino)-2-phenylacetyl]pyrrolidin-2-yl}carbonyl)amino]benzy}(4-fluorophenyl)amino]methyl}phenyl)carbamoyl]pyrrolidin-1-yl}-2-oxo-1-[(3R)-tetrahydrofuran-3-yl]ethyl}carbamate] was tested, and the EC50 was less than 1 nM.
For `CC[C@H](C)[C@H](NC(=O)OC)C(=O)N1CCC[C@H]1C(=O)Nc1ccc(CN(Cc2ccc(NC(=O)[C@@H]3CCCN3C(=O)[C@@H](NC(=O)OC)[C@@H](C)CC)cc2)c2ccccc2)cc1` [Example 9], the EC50 was less than 1 nM.
Work on `O=C(Nc1ccc(CN(Cc2ccc(NC(=O)[C@@H]3C[C@@H](F)CN3C(=O)[C@@H](c3ccccc3)N3CCCCC3)cc2)c2ccc(F)cc2)cc1)[C@@H]1C[C@@H](F)CN1C(=O)[C@@H](c1ccccc1)N1CCCCC1` [Example 102, (2S,4R,2′S,4′R)-N,N′-{[(4-fluorophenyl)imino]bis(methanediylbenzene-4,1-diyl)}bis{4-fluoro-1-[(2R)-2-phenyl-2-piperidin-1-ylacetyl]pyrrolidine-2-carboxamide}] yielded an EC50 of less than 1 nM.
In the case of `COC(=O)N[C@H](C(=O)N1CC=C[C@H]1C(=O)Nc1ccc(CN(Cc2ccc(NC(=O)[C@@H]3C=CCN3C(=O)[C@@H](NC(=O)OC)C(C)(C)C)cc2)c2ccc(F)cc2)cc1)C(C)(C)C` [Example 125, methyl [(1S)-1-{[(2S)-2-{[4-({(4-fluorophenyl)[4-({[(2S)-1-{(2S)-2-[(methoxycarbonyl)amino]-3,3-dimethylbutanoyl}-2,5-dihydro-1H-pyrrol-2-yl]carbonyl}amino)benzyl]amino}methyl)phenyl]carbamoyl}-2,5-dihydro-1H-pyrrol-1-yl]carbonyl}-2,2-dimethylpropyl]carbamate], the EC50 is reported as less than 1 nM.
For `COC(=O)N[C@H](C(=O)N1CCC[C@H]1C(=O)Nc1ccc(CN(Cc2ccc(NC(=O)[C@@H]3CCCN3C(=O)[C@@H](NC(=O)O[C@H]3CCOC3)C(C)(C)C)cc2)c2ccccc2)cc1)C(C)(C)C` [Example 59, methyl (3S)-tetrahydrofuran-3-yl[(phenylimino)bis{methanediylbenzene-4,1-diylcarbamoyl(2S)pyrrolidine-2,1-diyl[(2S)-3,3-dimethyl-1-oxobutane-1,2-diyl]}]biscarbamate], the EC50 was 10 to 100 nM.
In the case of `O=C(Nc1ccc(CN(Cc2ccc(NC(=O)[C@@H]3COCN3C(=O)OCc3ccccc3)cc2)c2ccc(F)cc2)cc1)[C@@H]1COCN1C(=O)OCc1ccccc1` [Example 126, dibenzyl (4S,4′S)-4,4′-{[(4-fluorophenyl)imino]bis(methanediylbenzene-4,1-diylcarbamoyl)}bis(1,3-oxazolidine-3-carboxylate)], the EC50 is reported as 10 to 100 nM.
For `COC(=O)N[C@H](C(=O)N1CCC[C@H]1C(=O)Nc1ccc(CN(Cc2ccc(NC(=O)[C@@H]3CCCN3C(=O)[C@@H](NC(=O)OC)C(C)(C)C)cc2)c2ccccc2)cc1)[C@H]1CCOC1` [Example 53, N-(methoxycarbonyl)-3-methyl-L-valyl-N-(4-{[{4-[(1-{(2S)-2-[(methoxycarbonyl)amino]-2-[(3R)-tetrahydrofuran-3-yl]acetyl}-L-prolyl)amino]benzyl}(phenyl)amino]methyl}phenyl)-L-prolinamide], the EC50 was less than 1 nM.
`COC(=O)N[C@H](C(=O)N1CCC[C@H]1c1nc2cc(CN(Cc3ccc4[nH]c([C@@H]5CCCN5C(=O)[C@@H](NC(=O)OC)C(C)C)nc4c3)c3ccccc3)ccc2[nH]1)C(C)C` [Example 17, Dimethyl (2S,2′S)-1,1′-((2S,2′S)-2,2′-(5,5′-(phenylazanediyl)bis(methylene)bis(1H-benzo[d]imidazole-5,2-diyl))bis(pyrrolidine-2,1-diyl))bis(3-methyl-1-oxobutane-2,1-diyl)dicarbamate] showed an EC50 of less than 1 nM.
With `CCN(CC)[C@@H](C(=O)N1CCC[C@H]1C(=O)Nc1ccc(CN(Cc2ccc(NC(=O)[C@@H]3CCCN3C(=O)[C@@H](c3ccccc3)N3CCCC3)cc2)c2ccc(F)cc2)cc1)c1ccccc1` [Example 83, (2S)-1-[(2R)-2-(diethylamino)-2-phenylacetyl]-N-(4-{[(4-fluorophenyl){4-[({(2S)-1-[(2R)-2-phenyl-2-pyrrolidin-1-ylacetyl]pyrrolidin-2-yl}carbonyl)amino]benzyl}amino]methyl}phenyl)pyrrolidine-2-carboxamide] the EC50 was less than 1 nM.
Work on `CC(=O)N[C@H](C(=O)N1CCC[C@H]1C(=O)Nc1ccc(CN(Cc2ccc(NC(=O)[C@@H]3CCCN3C(=O)[C@@H](NC(C)=O)C(C)(C)C)cc2)c2ccccc2)cc1)C(C)(C)C` [Example 79, (2S,2′S)-N,N′-[(phenylimino)bis(methanediylbenzene-4,1-diyl)]bis {1-[(2S)-2-(acetylamino)-3,3-dimethylbutanoyl]pyrrolidine-2-carboxamide}] yielded an EC50 of 10 to 100 nM.
Work on `CC[C@H](NC(=O)OC)C(=O)N1CCC[C@H]1C(=O)Nc1ccc(CN(Cc2ccc(NC(=O)[C@@H]3CCCN3C(=O)[C@@H](c3ccccc3)N3CCCCC3)cc2)c2ccc(F)cc2)cc1` [Example 115, methyl [(1S)-1-({(2S)-2-[(4-{[(4-fluorophenyl){4-[({(2S)-1-[(2R)-2-phenyl-2-piperidin-1-ylacetyl]pyrrolidin-2-yl}carbonyl)amino]benzyl}amino]methyl}phenyl)carbamoyl]pyrrolidin-1-yl}carbonyl)propyl]carbamate] yielded an EC50 of less than 1 nM.
`COC(=O)N[C@H](C(=O)N1CCC[C@H]1C(=O)Nc1ccc(CN(Cc2ccc(NC(=O)[C@@H]3CCCN3C(=O)[C@@H](NC(=O)OC)C(C)(C)C)cc2)c2ccc(F)c(F)c2)cc1)C(C)(C)C` [Example 90, dimethyl ([(3,4-difluorophenyl)imino]bis{methanediylbenzene-4,1-diylcarbamoyl(2S)pyrrolidine-2,1-diyl[(2S)-3,3-dimethyl-1-oxobutane-1,2-diyl]})biscarbamate] was tested, and the EC50 was less than 1 nM.
`CN(C)C(=O)N[C@H](C(=O)N1CCC[C@H]1C(=O)Nc1ccc(CN(Cc2ccc(NC(=O)[C@@H]3CCCN3C(=O)[C@@H](NC(=O)N(C)C)C(C)(C)C)cc2)c2ccccc2)cc1)C(C)(C)C` [Example 80, (2S,2′S)-N,N′-[(phenylimino)bis(methanediylbenzene-4,1-diyl)]bis(1-{(2S)-2-[(dimethylcarbamoyl)amino]-3,3-dimethylbutanoyl}pyrrolidine-2-carboxamide)] gave an EC50 of 10 to 100 nM.
For `O=C(Nc1ccc(CN(Cc2ccc(NC(=O)[C@@H]3CCCN3C(=O)O[C@H]3CCOC3)cc2)c2ccccc2)cc1)[C@@H]1CCCN1C(=O)O[C@H]1CCOC1` [Example 150, di[(3S)-tetrahydrofuran-3-yl](2S,2′S)-2,2′-[(phenylimino)bis(methanediylbenzene-4,1-diylcarbamoyl)]dipyrrolidine-1-carboxylate], the EC50 was 10 to 100 nM.
`CCN(CC)[C@@H](C(=O)N1CCC[C@H]1C(=O)Nc1ccc(CN(Cc2ccc(NC(=O)[C@@H]3CCCN3C(=O)[C@@H](c3ccccc3)N(CC)CC)cc2)c2ccc(F)cc2)cc1)c1ccccc1` [Example 54, (2S,2′S)-N,N-{[(4-fluorophenyl)imino]bis(methanediylbenzene-4,1-diyl)}bis{1-[(2R)-2-(diethylamino)-2-phenylacetyl]pyrrolidine-2-carboxamide}] was tested, and the EC50 was less than 1 nM.
For `COC(=O)N[C@H](C(=O)N1CC(F)(F)C[C@H]1C(=O)Nc1ccc(CN(Cc2ccc(NC(=O)[C@@H]3CC(F)(F)CN3C(=O)[C@@H](NC(=O)OC)C(C)(C)C)cc2)c2ccccc2)cc1)C(C)(C)C` [Example 73], the EC50 was less than 1 nM.

Reference: patent publication US9278922B2 (ABBVIE INC., priority 2009, dated 2016)
